Measurements from patent publication US10300151B2, “Methods and systems for noninvasive fluorescence-based functional imaging of kidneys” (Board of Regents, The University of Texas System, priority 2015, dated 2019).
Entries after “also recorded” stand apart in the source; their conditions may differ.

Key:
kidneys of Balb/c mice [1] = assay: Noninvasive whole-body fluorescence kidney imaging of intact mice after i.v. injection of fluorophore; format: in vivo, mouse; settings: for duration of kidney contrast/visualisation in noninvasive imaging: after i.v. injection; for excretion route: fluorescence from bladder at 65 min / intestines after 10 min p.i.; for skin clearance half-life: observed during 60 min p.i.; for fraction of first phase of skin intensity increase / fraction of second phase of skin intensity increase / skin fluorescence intensity increase half-life, first phase / skin fluorescence intensity increase half-life, second phase: two-phase exponential growth, FIG. 10
Experimental: Invasive and noninvasive imaging of normal mice, UUO mice and sham mice were performed using the following protocol. The protocol for invasive and noninvasive imaging differed in only in that for invasive imaging, the mouse's kidneys are exposed via removal of the mouse's back skin.
Prior to imaging, hair-removed Balb/c mice were anesthetized using 3% isoflurane. A catheter filled with PBS was inserted into each mouse's tail vein. The mouse, along with its tail vein catheter, was placed in supine position on the stage of fluorescence imaging system, with the mouse's back facing the excitation light and charge-coupled device (CCD) camera.
Fluorescence imaging of the each of mice proceeded as follows. Bright-field and fluorescence images of the each mouse was taken before injection with fluorophores. When its breathing rate decreased to 10-14 times per 15 s, the mouse was injected with 200 μL of a fluorophore solution. The fluorophore solutions used were PBS solutions of either an organic dye (Cy3, Cy7, or IRDye 800CW) or GS-AuNPs. The concentrations of Cy3, Cy7 and IRDye 800CW were 100, 10, and 10 μM, respectively, and these solutions were filtered through a 0.02 μm filter before injection. The solution of NIR-emitting GS-AuNPs contained 10 mg/mL gold atom as determined by inductively coupled plasma mass spectrometry (ICP-MS). Once the designated fluorophore solution was injected, whole body fluorescence images of each mouse were collected consecutively until 60 minutes post-injection. To ensure reproducible results, each mouse's anesthesia status was maintained at constant level before injection of fluorophores. Unlike clinical renographic procedures, no diuretic agents were used, and the animals were not hydrated prior to fluorescence imaging.
The parameters for acquiring the fluorescence images were shown as follows: Cy3, excitation at 550/10 nm, emission at 600/20 nm, exposure time of 2 s, no binning (FIGS. 4, 6, and 7); Cy7, excitation of 710/10 nm, emission of 790/20 nm, exposure time of 5 s, 2×2 binning (FIGS. 5, 8, and 9); IRDye 800CW, excitation of 710/10 nm, emission of 790/20 nm, 2×2 binning, exposure time of 5 s (FIGS. 21 and 55); GS-AuNPs, excitation of 710/10 nm, emission of 830/20 nm; exposure time of 30 s, 2×2 binning (FIGS. 24, 36, and 54).
Regions of interest (ROIs) designated “kidney areas” were defined around the left and right kidneys on the fluorescence image showing high kidney intensity. Four ROIs designated “surrounding tissue areas” were drawn in proximity to the each kidney; the mean values of these four ROIs were considered the “mean intensity of surrounding tissue area” for the respective kidney. The percentage of kidney contrast enhancement was calculated as follows:
[formula] For GS-AuNPs, the ROIs of “skin” were chosen from the back area close to the tail, so as to avoid the influence of bright kidneys. The time-dependent fluorescence intensity of skin (or kidneys) and percentage of kidney contrast enhancement (FIGS. 10-14, 22, 23, 25, 26, 37, 56, and 57). The curves were fitted with exponential functions to generate the kinetics of kidney contrast change or the kinetics of accumulation and clearance of the fluorophores in the skin and kidneys (FIGS. 10, 22, and 23). Deconvolution and parametric analysis of the kidney TFICs were performed using Origin 8 (FIGS. 27-35; Tables 1 and 2). Pathological Analysis

kidneys of Balb/c mice [2] = assay: Invasive fluorescence kidney imaging of skin-removed mice after i.v. injection of fluorophore; format: in vivo, mouse; settings: for time of maximum skin fluorescence intensity: FIG. 26 (Cy7: FIG. 10); for time at which skin fluorescence intensity surpasses left and right kidney intensity: kidneys surgically exposed; for peak skin fluorescence intensity as percentage of maximum kidney fluorescence intensity: kidney fluorescence from invasive imaging data, FIG. 26
Experimental: Invasive and noninvasive imaging of normal mice, UUO mice and sham mice were performed using the following protocol. The protocol for invasive and noninvasive imaging differed in only in that for invasive imaging, the mouse's kidneys are exposed via removal of the mouse's back skin. […] As shown in panel a, the kidneys are paired bean-shaped organs lying on either side of the vertebral column. The right kidney (RK) of a mouse is usually slightly higher than it left kidney (LK). Since the kidneys locate retroperitoneally against the dorsal body wall, LK (shown in panel b) and RK (shown in panel c) can be exposed once the back skin above the kidneys was removed. The interference of skin on kidney imaging can be avoided in such an invasive way. Prior to imaging, hair-removed Balb/c mice were anesthetized using 3% isoflurane. A catheter filled with PBS was inserted into each mouse's tail vein. The mouse, along with its tail vein catheter, was placed in supine position on the stage of fluorescence imaging system, with the mouse's back facing the excitation light and charge-coupled device (CCD) camera. Fluorescence imaging of the each of mice proceeded as follows. Bright-field and fluorescence images of the each mouse was taken before injection with fluorophores. When its breathing rate decreased to 10-14 times per 15 s, the mouse was injected with 200 μL of a fluorophore solution. The fluorophore solutions used were PBS solutions of either an organic dye (Cy3, Cy7, or IRDye 800CW) or GS-AuNPs. The concentrations of Cy3, Cy7 and IRDye 800CW were 100, 10, and 10 μM, respectively, and these solutions were filtered through a 0.02 μm filter before injection. The solution of NIR-emitting GS-AuNPs contained 10 mg/mL gold atom as determined by inductively coupled plasma mass spectrometry (ICP-MS). Once the designated fluorophore solution was injected, whole body fluorescence images of each mouse were collected consecutively until 60 minutes post-injection. To ensure reproducible results, each mouse's anesthesia status was maintained at constant level before injection of fluorophores. Unlike clinical renographic procedures, no diuretic agents were used, and the animals were not hydrated prior to fluorescence imaging. The parameters for acquiring the fluorescence images were shown as follows: Cy3, excitation at 550/10 nm, emission at 600/20 nm, exposure time of 2 s, no binning (FIGS. 4, 6, and 7); Cy7, excitation of 710/10 nm, emission of 790/20 nm, exposure time of 5 s, 2×2 binning (FIGS. 5, 8, and 9); IRDye 800CW, excitation of 710/10 nm, emission of 790/20 nm, 2×2 binning, exposure time of 5 s (FIGS. 21 and 55); GS-AuNPs, excitation of 710/10 nm, emission of 830/20 nm; exposure time of 30 s, 2×2 binning (FIGS. 24, 36, and 54). Regions of interest (ROIs) designated “kidney areas” were defined around the left and right kidneys on the fluorescence image showing high kidney intensity. Four ROIs designated “surrounding tissue areas” were drawn in proximity to the each kidney; the mean values of these four ROIs were considered the “mean intensity of surrounding tissue area” for the respective kidney. The percentage of kidney contrast enhancement was calculated as follows: [formula] For GS-AuNPs, the ROIs of “skin” were chosen from the back area close to the tail, so as to avoid the influence of bright kidneys. The time-dependent fluorescence intensity of skin (or kidneys) and percentage of kidney contrast enhancement (FIGS. 10-14, 22, 23, 25, 26, 37, 56, and 57). The curves were fitted with exponential functions to generate the kinetics of kidney contrast change or the kinetics of accumulation and clearance of the fluorophores in the skin and kidneys (FIGS. 10, 22, and 23). Deconvolution and parametric analysis of the kidney TFICs were performed using Origin 8 (FIGS. 27-35; Tables 1 and 2). Pathological Analysis

[3] = in mice, blood; cited from earlier work
kidneys of UUO mice = assay: Noninvasive fluorescence renography in unilateral ureter obstruction (UUO) and sham mice; format: in vivo, mouse
Description: To obtain unilateral […] obstruction (UUO) mice, male Balb/c mice (6-8 weeks old, with about 20 g) were anesthetized with isoflurane. For each mouse, the left kidney was exposed an incision on the left flank, and the left ureter was obstructed completely near the renal pelvis using a nonabsorbable suture. For mice in the sham group, the left ureter was exposed using the same surgical procedure but ureter ligation was not performed. Female Balb/c mice (8-10 weeks old, weighing about 20 g) were used as normal (non-UUO) mice for other experiments, such as those shown in FIGS. 4-19. The hair on the Balb/c mice was removed using hair removal lotion at least 24 h before the imaging experiments.
Fluorescence imaging of the each of mice proceeded as follows. Bright-field and fluorescence images of the each mouse was taken before injection with fluorophores. […] The solution of NIR-emitting GS-AuNPs contained 10 mg/mL gold atom as determined by inductively coupled plasma mass spectrometry (ICP-MS). Once the designated fluorophore solution was injected, whole body fluorescence images of each mouse were collected consecutively until 60 minutes post-injection. […] Unlike clinical renographic procedures, no diuretic agents were used, and the animals were not hydrated prior to fluorescence imaging. […]

[4] = 0.6 min p.i., noninvasive, N=3, mean±s.d.
[5] = 60 min p.i., noninvasive, N=3, mean±s.d.
[6] = noninvasive, single exponential decay

fraction of first phase of skin intensity increase (kidneys of Balb/c mice [1]) [%]	fraction of second phase of skin intensity increase (kidneys of Balb/c mice [1]) [%]	skin fluorescence intensity increase half-life, first phase (kidneys of Balb/c mice [1]) [min]	skin fluorescence intensity increase half-life, second phase (kidneys of Balb/c mice [1]) [min]	time of maximum skin fluorescence intensity (kidneys of Balb/c mice [2]) [min p.i.]	time at which skin fluorescence intensity surpasses left and right kidney intensity (kidneys of Balb/c mice [2]; invasive imaging) [min p.i.]	peak skin fluorescence intensity as percentage of maximum kidney fluorescence intensity (kidneys of Balb/c mice [2]) [%]	SMILES	duration of kidney contrast/visualisation in noninvasive imaging (kidneys of Balb/c mice [1]; intact mouse)	excretion route (kidneys of Balb/c mice [1])	skin clearance half-life (kidneys of Balb/c mice [1])	further results
33.5	66.5	1.5	7.4	35	13.2	95.3	CCN1C(=CC=CC=CC=CC2=[N+](CCCCCC(=O)O)c3ccc(S(=O)(=O)O)cc3C2(C)C)C(C)(C)c2cc(S(=O)(=O)[O-])ccc21 [Cy7, disulfo-Cy7 carboxylic acid]	less than 10 min	can be excreted into urine through renal clearance; also recorded: can also be excreted through a hepatic route	No clearance of Cy7 from the skin was observed during 60 min p.i.	–
–	–	–	–	25	–	75.5±9.3	CC1(C)C(/C=C/C2=C(Oc3ccc(S(=O)(=O)O)cc3)C(=C/C=C3/N(CCCCS(=O)(=O)O)c4ccc(S(=O)(=O)[O-])cc4C3(C)C)/CCC2)=[N+](CCCCCC(=O)O)c2ccc(S(=O)(=O)O)cc21 [IRDye 800CW, IRDye 800CW carboxylate]	less than 5 min	–	–	percentage contrast enhancement of left kidney (LK) (kidneys of Balb/c mice [1]; [4]): 67.6±7.1%; percentage contrast enhancement of right kidney (RK) (kidneys of Balb/c mice [1]; [4]): 49.9±9.0%; percentage of contrast enhancement, LK (kidneys of Balb/c mice [1]; [5]): −4.7±0.8%; percentage of contrast enhancement, RK (kidneys of Balb/c mice [1]; [5]): −4.8±5.1%; time at which skin fluorescence intensity is halfway to saturation (kidneys of Balb/c mice [1]; noninvasive imaging, FIG. 22): 4.1 min; decay half-life of percentage contrast enhancement, LK (kidneys of Balb/c mice [1]; [6]): 4.2 min; decay half-life of percentage contrast enhancement, RK (kidneys of Balb/c mice [1]; [6]): 4.5 min; elimination half-life (t1/2β) [3]: 58.8 ± 4.8 min; time-dependent intensity curves in sham vs UUO mice (kidneys of UUO mice; LK, RK and skin, FIGS. 56-57): very similar profiles of time-dependent intensity curve in sham and UUO mice; visibility of kidneys in UUO mouse (kidneys of UUO mice; noninvasive imaging, UUO mouse): both UUO LK and RK disappeared after 5 min p.i.; clearance half-life from kidney, LK, first component (kidneys of Balb/c mice [2]; invasive imaging, FIG. 23): 4.3 min; clearance half-life from kidney, LK, second component (kidneys of Balb/c mice [2]; invasive imaging, FIG. 23): 28.0 min; clearance half-life from kidney, RK, first component (kidneys of Balb/c mice [2]; invasive imaging, FIG. 23): 4.7 min; clearance half-life from kidney, RK, second component (kidneys of Balb/c mice [2]; invasive imaging, FIG. 23): 18.9 min; fraction of first clearance component, LK (kidneys of Balb/c mice [2]; invasive imaging, FIG. 23): 50.1%; fraction of first clearance component, RK (kidneys of Balb/c mice [2]; invasive imaging, FIG. 23): 46.0%; fraction of second clearance component, LK (kidneys of Balb/c mice [2]; invasive imaging, FIG. 23): 49.9%; fraction of second clearance component, RK (kidneys of Balb/c mice [2]; invasive imaging, FIG. 23): 54.0%
18.1	81.9	0.2	2.8	–	1.5	–	CCN1C(=CC=CC2=[N+](CCCCCC(=O)O)c3ccc(S(=O)(=O)O)cc3C2(C)C)C(C)(C)c2cc(S(=O)(=O)[O-])ccc21 [Cy3, disulfo-Cy3 carboxylic acid]	–	can be excreted into urine through renal clearance	56.5 min	contrast enhancement of noninvasively imaged mouse kidney (kidneys of Balb/c mice [1]; intact mouse, Ex/Em 550/600 nm): failed to enhance contrast
